Measurements from US12331040B2 (Karyopharm Therapeutics Inc., priority 2013, dated 2025).

Experiments:
[1] = tested on: U2OS cells; experiment: Staining of β-catenin, cofilin and F-actin in fixed U2OS cells; assay type: cell-based, human; details: 1 μM, 48 hours
Protocol: U2OS cells were grown on coverslips and treated with DMSO or 1 μM Compound 585 for 48 hours, at which time the cells were fixed and stained. The cells were labeled with phospho- or total β-catenin antibodies; phospho- or total cofilin antibodies; or ALEXA-FLUORO 488 phalloidin. Both phospho- and total β-catenin were reduced by treatment with Compound 585. Both phospho- and total cofilin were reduced by treatment with Compound 585. ALEXA-FLUORO 488 phalloidin was used to stain F-actin.

[2] = tested on: Hep 3B xenografts; experiment: Hep3B hepatocellular carcinoma xenograft in SCID mice; assay type: in vivo
Protocol: The effects of Compound 585 were evaluated on tumor growth using a Hep3B hepatocellular carcinoma xenograft model in SCID mice. Hep 3B (ATCC […]) hepatocellular carcinoma cells were obtained from ATCC. These cells were grown in DMEM medium supplemented with 10% fetal bovine serum and 1% penicillin and streptomycin. Cells were sub-cultured by dilution at a ratio of 1:4. Hep3B cells were harvested by centrifugation and counted using a hemocytometer. Cells were resuspended in PBS at a 5×10^7 cells per mL. Cells were placed on ice, then mixed with an equal volume of Matrigel™ (BD Biosciences CB-40234). This mixture was kept on ice and injected into the left flank of mice in a volume of 0.2 mL, equivalent to 5×10^6 cells per mouse. Thirty-two (32) SCID mice were inoculated subcutaneously in the left flank with 5×10^6 Hep 3B cells. Treatment was initiated when the tumors reached a mean volume of 103.7 mm3 (standard deviation±30 mm^3, range 17-183 mm^3). Mice were allocated to four (4) groups of eight (8) mice such that mean tumor volume in each group was within the range of 95 to 104 mm^3. Mice were treated with vehicle, standard of care control (doxorubicin), or Compound 585. With the exception of doxorubicin (which was given IP), all compounds were given by oral gavage. […] Animal weights and conditions were recorded daily, and tumors were measured on Mondays, Wednesdays and Fridays.

[3] = tested on: PAK4 signalling in NHDF cells; experiment: Western blots of PAK4 signalling in normal cells (NHDF); assay type: cell-based, human; details: NHDF normal cell line; 72-hour treatment, increasing concentrations; Western blot
Protocol: Normal human dermal fibroblasts (NHDF) and normal lung cells (IMR-90) were treated with Compound 585 for 72 hours, at which time the cells were lysed in RIPA buffer. The lysates were run on SDS-PAGE and Western blots of phospho-PAK4, PAK4, phospho-cofilin, cofilin, phospho-β-catenin, β-catenin, PARP and caspase-3 were performed.

[4] = tested on: HL-60 cells; experiment: MTT cell proliferation assay; assay type: cell-based; details: Homo sapiens; HL-60 cells; 72-hour MTT; read-out: HL-60 MTT IC50
[5] = tested on: Hep G2 cells; experiment: MTT cell proliferation assay; assay type: cell-based; details: Homo sapiens, HepG2; Hep G2 cells; 72-hour MTT; read-out: Hep G2 MTT IC50
[6] = tested on: RPMI8226 cells; experiment: MTT cell proliferation assay; assay type: cell-based; details: Homo sapiens, RPMI-8226; RPMI8226 cells; 72-hour MTT; read-out: RPMI8226 MTT IC50
[7] = tested on: HEP 3B cells; experiment: MTT cell proliferation assay; assay type: cell-based; details: Homo sapiens, Hep3B; HEP 3B cells; 72-hour MTT; read-out: HEP 3B MTT IC50
[8] = tested on: TFK-1 cells; experiment: MTT cell proliferation assay; assay type: cell-based; details: 72-hour MTT
Protocol: (§1) The MTT cell proliferation assay was used to study the cytotoxic properties of the compounds. The assay was performed according to the method described by Roche Molecular Biochemicals, with minor modifications. The assay is based on the cleavage of the tetrazolium salt, MTT, in the presence of an electron-coupling reagent. The water-insoluble formazan salt produced must be solubilized in an additional step. Cells grown in a 96-well tissue culture plate were incubated with the MTT solution for approximately 4 hours. After this incubation period, a water-insoluble formazan dye formed. After solubilization, the formazan dye was quantitated using a scanning multi-well spectrophotometer (ELISA reader). […] The cells were seeded at 5,000-10,000 cells in each well of 96-well plate in 100 μL of fresh culture medium and were allowed to attach overnight. The stock solutions of the compounds were diluted in 100 μL cell culture medium to obtain eight concentrations of each test compound, ranging from 1 nM to 30 μM. […] All optical densities were measured at 490 nm using a Vmax Kinetic Microplate Reader (Molecular Devices). In most cases, the assay was performed in duplicate and the results were presented as a mean percent inhibition to the negative control±SE. The following formula was used to calculate the percent of inhibition: Inhibition (%)=(1−(ODo/OD))×100.
(§2) Compounds 504, 510, 525 and 585 were further tested against selected solid and hematological cancer cell lines and selected normal cell lines in a 72-hour MTT cell proliferation assay.

[9] = tested on: U-266 cells; experiment: MTT cell proliferation assay; assay type: cell-based; details: Homo sapiens, 72-hour MTT
Protocol: as §1, §2

[10] = tested on: U2OS cells; experiment: Western blots of autophagy, stress and cell cycle markers in U2OS cells; assay type: cell-based, human; details: 1 μM or 10 μM, 48 hours, Western blot
Protocol: U2OS cells were plated in a 6-well plate overnight. The next day, the cells were treated with 1 μM or 10 μM Compound 585 for 48 hours, then collected and lysed in RIPA buffer. The lysate was run on SDS-PAGE and Western blots of PAK4, PUMA, CHOP, p21, cyclin D, MLH1, p-AMPK, AMPK and LC3 were performed.

## Nc1ccc(/C=C/C(=O)NCc2cc3cc(-c4ccc(C(=O)N5CCC(F)(F)CC5)cn4)cc(C(F)(F)F)c3o2)cn1 [Compound 585, (E)-3-(6-aminopyridin-3-yl)-N-((5-(5-(4,4-difluoropiperidine-1-carbonyl)pyridin-2-yl)-7-(trifluoromethyl)benzofuran-2-yl)methyl)acrylamide]
[1]
  stress fiber formation (F-actin, phalloidin): increase in stress fiber formation
[1]; antibody staining
  phospho- and total cofilin: reduced
  phospho- and total β-catenin: reduced
[2]; Hep 3B xenograft model, minimal or no side effects or weight loss up to 200 mg/kg daily dose
  toxicity (side effects, weight loss): without major toxicity
[2]; SCID mice, 20 or 60 mg/kg PO daily
  mean tumor volume of Hep 3B xenografts: tumor growth inhibition
[3]
  effect on PAK4 signalling (phospho-PAK4, PAK4, phospho-cofilin, cofilin, phospho-β-catenin, β-catenin, PARP, caspase 3): little to no effect
[4]
  IC50: 0.21 µM
[5]
  IC50: 0.16 µM
[6]
  IC50: 0.15 µM
[7]
  IC50: 0.07 µM
[8]
  IC50: 1.03 µM
[9]
  IC50: 0.31 µM
[10]
  cell cycle proteins, p21 and cyclin D1: reduced
  markers of stress response and autophagy (AMPK phosphorylation, short form of LC3 lysosome marker): induced markers of stress response and autophagy
